What is called IC50 is the point on the concentration scale where inhibition reaches its midpoint.

Structures are written as SMILES. Some results are limits rather than exact numbers.

The target in the assay is T1, N-terminally GST-tagged human full length recombinant Mps-1 kinase (Homo sapiens, UniProt P33981).
T1 construct: N-terminally GST-tagged human full length recombinant Mps-1 kinase; purchased Invitrogen, Karslruhe, Germany PV4071
T1 sequence (P33981 1-857): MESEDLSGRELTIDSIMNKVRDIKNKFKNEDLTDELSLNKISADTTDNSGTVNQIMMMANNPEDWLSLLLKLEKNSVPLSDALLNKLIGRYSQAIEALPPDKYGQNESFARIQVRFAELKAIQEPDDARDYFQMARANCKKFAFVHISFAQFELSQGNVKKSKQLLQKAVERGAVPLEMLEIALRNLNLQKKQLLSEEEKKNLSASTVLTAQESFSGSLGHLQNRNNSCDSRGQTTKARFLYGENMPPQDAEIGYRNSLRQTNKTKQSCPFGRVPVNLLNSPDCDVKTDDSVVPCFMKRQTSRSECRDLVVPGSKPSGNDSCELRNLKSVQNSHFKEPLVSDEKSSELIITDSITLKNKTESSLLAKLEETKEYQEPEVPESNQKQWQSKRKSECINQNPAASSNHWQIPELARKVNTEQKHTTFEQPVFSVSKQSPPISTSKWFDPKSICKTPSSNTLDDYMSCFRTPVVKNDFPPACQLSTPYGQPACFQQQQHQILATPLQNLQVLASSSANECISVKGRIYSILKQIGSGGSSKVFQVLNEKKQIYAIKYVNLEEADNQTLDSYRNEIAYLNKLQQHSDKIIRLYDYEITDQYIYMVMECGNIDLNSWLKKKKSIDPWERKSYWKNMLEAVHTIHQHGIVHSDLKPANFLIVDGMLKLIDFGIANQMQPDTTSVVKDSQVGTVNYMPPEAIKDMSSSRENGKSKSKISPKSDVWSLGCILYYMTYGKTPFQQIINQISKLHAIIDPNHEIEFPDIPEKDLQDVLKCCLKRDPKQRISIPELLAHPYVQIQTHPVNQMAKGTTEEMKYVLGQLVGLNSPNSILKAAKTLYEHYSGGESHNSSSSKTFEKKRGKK
Briefly: Mps-1 kinase assay (TR-FRET). Type of assay: biochemical. Particulars: Mps1 IC50 [nM], 10 μM ATP, 1 μM peptide substrate, 60 min at 22° C. Put shortly:
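TR-FRET signal between a Europium anti-phospho-Ser/Thr antibody and streptavidin-XLent reported phosphorylation of a biotinylated peptide by GST-tagged full-length Mps-1. Enzyme was near 1 nM final, chosen per lot for linearity.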
A general note: In TR-FRET formats the signal depends on donor and acceptor labels being close together.
On to `Cc1cc(-c2cnc3c(NC[C@H]4CC[S@@+]([O-])CC4)cc(Sc4cccc(F)c4)nn23)ccc1C(=O)NC1CC1` [Example 304A, N-cyclopropyl-4-(6-[(3-fluorophenyl)sulfanyl]-8-({[(cis)-1-oxidotetrahydro-2H-thiopyran-4-yl]methyl}amino)imidazo[1,2-b]pyridazin-3-yl)-2-methylbenzamide], for which the IC50 was under 0.1 nM.

For the compound `Cc1cc(-c2cnc3c(NCC(C)(C)O)cc(O/C=C(/F)C(F)(F)CO)nn23)ccc1C(=O)NC1CC1` [Example 241B, N-cyclopropyl-4-(8-[(2-hydroxy-2-methylpropyl)amino]-6-{[(1E)-2,3,3-trifluoro-4-hydroxybut-1-en-1-yl]oxy}imidazo[1,2-b]pyridazin-3-yl)-2-methylbenzamide], the IC50 came to 3.4 nM.

In the case of `Cc1cc(-c2cnc3c(NCC(C)(C)O)cc(Nc4ccc(Cl)cc4F)nn23)ccc1C(=O)NC1CC1` [Example 348, 4-{6-[(4-chloro-2-fluorophenyl)amino]-8-[(2-hydroxy-2-methylpropyl)amino]imidazo[1,2-b]pyridazin-3-yl}-N-cyclopropyl-2-methylbenzamide], the half-inhibitory concentration (IC50) turned out to be 1.5 nM.

Regarding `Cc1cc(-c2cnc3c(NCC4CCSCC4)cc(Sc4ccccc4O)nn23)ccc1C(=O)NC1CC1` [Example 289, N-cyclopropyl-4-{6-[(2-hydroxyphenyl)sulfanyl]-8-[(tetrahydro-2H-thiopyran-4-ylmethyl)amino]imidazo[1,2-b]pyridazin-3-yl}-2-methylbenzamide], the IC50 was determined as 0.2 nM.

Take `CCNC(=O)c1ccc(-c2cnc3c(NCCC(F)(F)F)cc(Oc4ccccc4C)nn23)cc1C` [Example 601, N-ethyl-2-methyl-4-{6-(2-methylphenoxy)-8-[(3,3,3-trifluoropropyl)a-mino]imidazo[1,2-b]pyridazin-3-yl}benzamide]: the IC50 is under 1 nM.

With `COc1ccc(Sc2cc(NCC(C)(C)O)c3ncc(-c4ccc(C(=O)NC5CC5)c(C)c4)n3n2)cc1` [Example 60B, N-cyclopropyl-4-{8-[(2-hydroxy-2-methylpropyl)amino]-6-[(4-methoxyphenyl)sulfanyl]imidazo[1,2-b]pyridazin-3-yl}-2-methylbenzamide], the IC50 was under 0.1 nM.

As for `Cc1cc(-c2cnc3c(NCC(C)(C)O)cc(Oc4ccc(Cl)c(F)c4)nn23)ccc1C(=O)NC1CC1` [Example 95, 4-{6-(4-Chloro-3-fluorophenoxy)-8-[(2-hydroxy-2-methylpropyl)amino]imidazo[1,2-b]pyridazin-3-yl}-N-cyclopropyl-2-methylbenzamide], the IC50 was found to be 0.3 nM.

Turning to `Cc1cc(-c2cnc3c(NCCC(F)(F)F)cc(Nc4ccccc4CO)nn23)ccc1C(=O)NC1CC1` [Example 370], the IC50 stood at 0.1 nM.

`OCc1cccc(-c2cc(NCCC(F)(F)F)c3ncc(-c4ccc(C(=S)NC5CC5)cc4)n3n2)c1` [Example 46, N-cyclopropyl-4-{6-[3-(hydroxymethyl)phenyl]-8-[(3,3,3-trifluoropropyl)amino]imidazo[1,2-b]pyridazin-3-yl}benzenecarbothioamide]: the IC50 was 1.1 nM.

`Cc1cc(-c2cnc3c(NCCS(=O)(=O)O)cc(Oc4cccc(F)c4)nn23)ccc1C(=O)NC1CC1` [Example 548, 2-({3-[4-(cyclopropylcarbamoyl)-3-methylphenyl]-6-(3-fluorophenoxy)imidazo[1,2-b]pyridazin-8-yl}amino)ethanesulfonic acid]: the IC50 turned out to be 0.7 nM.

Consider `CCCSc1cc(NCC(C)C)c2ncc(-c3ccc(C(=O)NC4CC4)c(C)c3)n2n1` [Example 201, N-cyclopropyl-2-methyl-4-{8-[(2-methylpropyl)amino]-6-(propylsulfanyl)imidazo[1,2-b]pyridazin-3-yl}benzamide], for which the IC50 was found to be 2.3 nM.

With `Cc1cc(-c2cnc3c(NCC4CCC(C)(O)CC4)cc(-c4ccccc4CO)nn23)ccc1C(=O)NC1CC1` (stereo not shown) [Example 340, N-cyclopropyl-4-(8-{[(4-hydroxy-4-methylcyclohexyl)methyl]amino}-6-[2-(hydroxymethyl)phenyl]imidazo[1,2-b]pyridazin-3-yl)-2-methylbenzamide], the IC50 came out at 3.3 nM.

In the case of `Cc1cc(-c2cnc3c(NCCC(F)(F)F)cc(Sc4ccccc4O)nn23)ccc1C(=O)NC1CC1` [Example 224, N-cyclopropyl-4-{6-[(2-hydroxyphenyl)sulfanyl]-8-[(3,3,3-trifluoropropyl)amino]imidazo[1,2-b]pyridazin-3-yl}-2-methylbenzamide], the IC50 was under 0.1 nM.

As to `CC(C)CNc1cc(-c2cncnc2)nn2c(-c3ccc(C(=O)NC4CC4)cc3)cnc12` [Example 143, N-cyclopropyl-4-{8-[(2-methylpropyl)amino]-6-(pyrimidin-5-yl)imidazo [1,2-b]pyridazin-3-yl} benzamide], the IC50 worked out at 4.7 nM.

Regarding `Cc1cc(-c2cnc3c(NCCC(F)(F)F)cc(Nc4ccc(CCO)cc4)nn23)ccc1C(=O)NC1CC1` [Example 427, N-cyclopropyl-4-(6-{[4-(2-hydroxyethyl)phenyl]amino}-8-[(3,3,3-trifluoropropyl)amino]imidazo[1,2-b]pyridazin-3-yl)-2-methylbenzamide], the IC50 turned out to be 0.2 nM.

Take `COCCNc1cc(NCC(C)(C)O)c2ncc(-c3ccc(C(=O)NC4CC4)c(C)c3)n2n1` [Example 331, N-cyclopropyl-4-{8-[(2-hydroxy-2-methylpropyl)amino]-6-[(2-methoxy-ethyl)amino]imidazo[1,2-b]pyridazin-3-yl}-2-methylbenzamide]: the IC50 was 12.6 nM.

Consider `Cc1cc(-c2cnc3c(NCC(C)(C)O)cc(-c4cncnc4)nn23)ccc1C(=O)NC1CC1` [Example 163, N-cyclopropyl-4-{8-[(2-hydroxy-2-methylpropyl)amino]-6-(pyrimidin-5-yl)imidazo[1,2-b]pyridazin-3-yl}-2-methylbenzamide], for which the IC50 was determined as 30.5 nM.

Turning to `CNc1cc(Oc2ccc(OC)cc2F)nn2c(-c3ccc(C(=O)NC4CC4)c(C)c3)cnc12` [Example 534, N-cyclopropyl-4-[6-(2-fluoro-4-methoxy-phenoxy)-8-(methyl-amino)imidazo[1,2-b]pyridazin-3-yl]-2-methylbenzamide], the IC50 is 0.1 nM.

`Cc1cc(Sc2cc(NCC(C)(C)O)c3ncc(-c4ccc(C(=O)NC5CC5)c(C)c4)n3n2)ccc1O` [Example 63, N-cyclopropyl-4-{6-[(4-hydroxy-3-methylphenyl)sulfanyl]-8-[(2-hydroxy-2-methylpropyl)amino]imidazo[1,2-b]pyridazin-3-yl}-2-methylbenzamide]: the IC50 is under 0.1 nM.

As for `Cc1cc(-c2cnc3c(NCCC(F)(F)F)cc(O/C=C(/F)C(F)(F)CO)nn23)ccc1C(=O)NC1CC1` [Example 278B, N-cyclopropyl-2-methyl-4-(6-{[(1E)-2,3,3-trifluoro-4-hydroxybut-1-en-1-yl]oxy}-8-[(3,3,3-trifluoropropyl)amino]imidazo[1,2-b]pyridazin-3-yl)benzamide], the IC50 worked out at 1 nM.

As for `CC(C)CNc1cc(-c2ccc(C(=O)NC3CC3)cc2)nn2c(-c3ccc(C(=O)NC4CC4)cc3)cnc12` [Example 116, 4,4′-{8-[(2-Methylpropyl)amino]imidazo[1,2-b]pyridazine-3,6-diyl} bis(N-cyclopropylbenzamide)], the concentration for half-maximal inhibition (IC50) was determined as 4 nM.

In the case of `Cc1cc(-c2cnc3c(NCCC(F)(F)F)cc(Oc4cccc(F)c4)nn23)ccc1C(=O)NCC(F)F` [Example 556, N-(2,2-difluoroethyl)-4-{6-(3-fluorophenoxy)-8-[(3,3,3-trifluoropropyl)amino]imidazo[1,2-b]pyridazin-3-yl}-2-methylbenzamide], the half-inhibitory concentration (IC50) was found to be 0.3 nM.

On to `Cc1cc(-c2cnc3c(NCC(C)C)cc(Sc4ccccc4)nn23)ccc1C(=O)NC1CC1` [Example 197, N-cyclopropyl-2-methyl-4-{8-[(2-methylpropyl)amino]-6-(phenylsulfanyl)imidazo[1,2-b]pyridazin-3-yl}benzamide], for which the IC50 was under 1 nM.

Take `CCN(CC)CCSc1cc(NCCC(F)(F)F)c2ncc(-c3ccc(C(=O)NC4CC4)c(C)c3)n2n1` [Example 210, N-cyclopropyl-4-(6-{[2-(diethylamino)ethyl]sulfanyl}-8-[(3,3,3-trifluoropropyl)amino]imidazo[1,2-b]pyridazin-3-yl)-2-methylbenzamide]: the IC50 stood at 6.9 nM.

In the case of `Cc1cc(-c2cnc3c(NCC(C)(C)O)cc(Oc4cccc(OCC(C)(C)O)c4)nn23)ccc1C(=O)NC1CC1` [Example 275, N-cyclopropyl-4-{6-[3-(2-hydroxy-2-methylpropoxy)phenoxy]-8-[(2-hydroxy-2-methylpropyl)amino]imidazo[1,2-b]pyridazin-3-yl}-2-methylbenzamide], the IC50 came out at 5.4 nM.

These data come from patent publication US9255100B2 (BAYER INTELLECTUAL PROPERTY GMBH, priority 2010, dated 2016).
